From patent US12285407B2, “Bis-indolylmethane derivatives and uses thereof” (The University of The West Indies, priority 2018, dated 2025) come the findings set out here.

Data set [1] in a line: In vivo acute toxicity (OECD guidelines). The settings on record: one subcutaneous injection, 2000 mg/kg and 300 mg/kg; 14 days.
The subject of data set [2] is Staphylococcus aureus ATCC 12600. Kind of data set: Broth microdilution MIC of SP-BIMs. The data set is classed as cell-based. As to conditions: ATCC12600, SP-BIM alone, read-out: MIC Staphylococcus aureus ATCC 12600.
Data set [3] has as its system clinical antibiotic resistant isolates of MRSA. The data set can be described thus: Checkerboard resistance breaking by SP-BIM 13. It is filed as cell-based, Staphylococcus aureus. As to conditions: clinical MRSA strains; in most cases.
Data set [4] deals with Salmonella typhimurium ATCC 14028. Kind of data set: Broth microdilution MIC of SP-BIMs. It is filed as cell-based. The settings on record: Salmonella enterica, read-out: MIC Salmonella tvpkimurium ATCC 14028. A digest of the protocol:
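S. typhimurium at ~10^6 CFU mL^−1 in cation-adjusted Mueller Hinton broth was exposed to twofold compound dilutions from 250 to 0.02 μg mL^−1 at 35° C. for 18 hours. Resazurin was then added, with 1 hour of shaking. MIC was the lowest concentration showing no blue-to-pink colour change.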

The test system of another data set is Enterococcus faecium. Kind of data set: Checkerboard synergy (FICI) of antibiotics with SP-BIM. The data set is classed as cell-based. The settings on record: Enterococcus faecium; SP-BIM 13 alone, one value per antibiotic's checkerboard; read-out: MIC SP-BIM 13 only.
In data set [5] the test system is MRSA HS 10132. The data set can be described thus: Systemic lethal MRSA infection in mice (survival). It is filed as in vivo.
For data set [6], the system named is MRSA HS 10132. The data set can be described thus: Systemic non-lethal MRSA infection in mice (organ MRSA load). The data set is classed as in vivo.
The subject of the next data set is Gram-negative bacteria. Kind of data set: Adjuvant broth microdilution. The data set is classed as cell-based. As to conditions: SP-BIM at 50 μg mL^−1. On the procedure: To each well, the SP-BIM to be tested was added to a final concentration of 50 μg mL^−1. […] SP-BIMs were assessed as potential adjuvants based on their ability to reduce the MIC of the antibiotic against respective pathogen.
A general note: In broth dilution the organism is exposed to a series of concentrations in liquid medium.

Data set [7] relates to Klebsiella pneumoniae ATCC 49472. Kind of data set: Broth microdilution MIC of SP-BIMs. The data set is classed as cell-based. As to conditions: ATCC49472, SP-BIM alone, read-out: MIC Klebisella pneumoniae ATCC 49472.

One may read the MIC as the smallest concentration in the dilution series that meets the test's criterion for growth inhibition. A word on the mortality: it is the percentage killed. As to `Oc1cc(C(c2c[nH]c3ccccc23)c2c[nH]c3ccccc23)cc(O)c1O` [SP-BIM 13, 5-(di(1H-indol-3-yl)methyl)benzene-1,2,3-triol], the mice deaths entry in data set [1] is “no mice deaths were recorded”. Also, the “mice weight and appetite” value in [1] is listed as “did not significantly vary from the untreated mice”. The MIC in [2] was over 250 µg/mL; in data set [4] it was 250 µg/mL; in the data set with Enterococcus faecium, 125 µg/mL; in data set [7], over 250 µg/mL. Further, in [3], the “reduction of ampicillin MICs by SP-BIM 13” value is 100 fold. The mortality with MRSA HS 10132 [5] (SP-BIM 13 only 5 mg kg^−1) is given as 40%; with MRSA HS 10132 [5] (SP-BIM 13 only 10 mg kg^−1), 60%; in the data set with MRSA HS 10132 [5] (SP-BIM 13 only 25 mg kg^−1), 0%; with MRSA HS 10132 [5] (ampicillin in combination with three levels SP-BIM 13, 5 days), 0%. The survival rate result in the data set on MRSA HS 10132 [5] (vancomycin in combination with the three levels of SP-BIM 13) is reported as “similarly high survival rate”. For the same compound, the “MRSA load in the spleen” value is on record as “did not significantly reduce” with MRSA HS 10132 [6] (SP-BIM 13 only, both levels); “significantly lower” with MRSA HS 10132 [6] (ampicillin and SP-BIM 13 at 10 and 25 mg kg^−1, vs no treatment, ampicillin only, ampicillin+5 mg kg^−1). Also, the “MRSA counts in liver” value was 7900 CFU mL^−1 with MRSA HS 10132 [6] (ampicillin ([…] mg kg^−1)+5 mg kg^−1 SP-BIM 13), 900 CFU mL^−1 with MRSA HS 10132 [6] (ampicillin ([…] mg kg^−1)+10 mg kg^−1 SP-BIM 13) and 63 CFU mL^−1 in the data set on MRSA HS 10132 [6] (ampicillin ([…] mg kg^−1)+25 mg kg^−1 SP-BIM 13). Also, the “potentiating activity for Gram-negative bacteria” value with Gram-negative bacteria is “No potentiating activity was observed”.
